Patent US20230210831A1, “CHRONIC KIDNEY DISEASE TREATMENT OR PREVENTION METHOD” (Japan Tobacco Inc., priority 2019, published 2023)

How the values were obtained:
Assay type in all cases: cell-based
[1] = tested on: Salmonella typhimurium TA98; assay: Ames test (reverse mutation test), TA98
Experimental: (§1) The solvent used herein was dimethyl sulfoxide (DMSO, 100 µL/plate).
(§2) The mixtures were preincubated at 37° C. for 20 minutes while shaking. […] Two plates per treatment were used.

[2] = tested on: Salmonella typhimurium TA1537; assay: Ames test (reverse mutation test), TA1537
Experimental: as §1, §2

[3] = tested on: Salmonella typhimurium TA100; assay: Ames test (reverse mutation test), TA100
Experimental: as §1, §2

[4] = tested on: Salmonella typhimurium TA1535; assay: Ames test (reverse mutation test), TA1535
Experimental: as §1, §2

Escherichia coli WP2uvrA = assay: Ames test (reverse mutation test), WP2uvrA
Experimental: as §1, §2

Cc1ccc(-n2nc(N)cc2-c2cccc(OCC(F)(F)F)c2)cc1 [Metabolite F]
Number of revertant colonies TA98 ([1]; S9 Mix +, dose 2.3 µg/plate): 93 | Number of revertant colonies TA98 ([1]; S9 Mix +, dose 6.9 µg/plate): 218 | Number of revertant colonies TA98 ([1]; S9 Mix +, dose 21 µg/plate): 522 | Number of revertant colonies TA98 ([1]; S9 Mix +, dose 62 µg/plate): 484 | Number of revertant colonies TA98 ([1]; S9 Mix +, dose 185 µg/plate): 287 | Number of revertant colonies TA98 ([1]; S9 Mix +, dose 556 µg/plate): 151 | Number of revertant colonies TA98 ([1]; S9 Mix +, dose 1667 µg/plate): 61 | Number of revertant colonies TA98 ([1]; S9 Mix +, dose 5000 µg/plate): 0 | Number of revertant colonies TA98 ([1]; S9 Mix -, dose 2.3 µg/plate): 25 | Number of revertant colonies TA98 ([1]; S9 Mix -, dose 6.9 µg/plate): 32 | Number of revertant colonies TA98 ([1]; S9 Mix -, dose 21 µg/plate): 21 | Number of revertant colonies TA98 ([1]; S9 Mix -, dose 62 µg/plate): 21 | Number of revertant colonies TA98 ([1]; S9 Mix -, dose 185 µg/plate): 20 | Number of revertant colonies TA98 ([1]; S9 Mix -, dose 556 µg/plate): 19 | Number of revertant colonies TA98 ([1]; S9 Mix -, dose 1667 µg/plate): 6 | Number of revertant colonies TA98 ([1]; S9 Mix -, dose 5000 µg/plate): 0 | potential to induce reverse mutations ([1]; TA98 with S9 mix): showed potential to induce reverse mutations | Number of revertant colonies TA1537 ([2]; S9 Mix +, dose 2.3 µg/plate): 41 | Number of revertant colonies TA1537 ([2]; S9 Mix +, dose 6.9 µg/plate): 92 | Number of revertant colonies TA1537 ([2]; S9 Mix +, dose 21 µg/plate): 157 | Number of revertant colonies TA1537 ([2]; S9 Mix +, dose 62 µg/plate): 227 | Number of revertant colonies TA1537 ([2]; S9 Mix +, dose 185 µg/plate): 151 | Number of revertant colonies TA1537 ([2]; S9 Mix +, dose 556 µg/plate): 54 | Number of revertant colonies TA1537 ([2]; S9 Mix +, dose 1667 µg/plate): 39 | Number of revertant colonies TA1537 ([2]; S9 Mix +, dose 5000 µg/plate): 3 | Number of revertant colonies TA1537 ([2]; S9 Mix -, dose 2.3 µg/plate): 9 | Number of revertant colonies TA1537 ([2]; S9 Mix -, dose 6.9 µg/plate): 16 | Number of revertant colonies TA1537 ([2]; S9 Mix -, dose 21 µg/plate): 16 | Number of revertant colonies TA1537 ([2]; S9 Mix -, dose 62 µg/plate): 10 | Number of revertant colonies TA1537 ([2]; S9 Mix -, dose 185 µg/plate): 3 | Number of revertant colonies TA1537 ([2]; S9 Mix -, dose 556 µg/plate): 0 | Number of revertant colonies TA1537 ([2]; S9 Mix -, dose 1667 µg/plate): 0 | Number of revertant colonies TA1537 ([2]; S9 Mix -, dose 5000 µg/plate): 0 | potential to induce reverse mutations ([2]; TA1537 with S9 mix): showed potential to induce reverse mutations | Number of revertant colonies TA100 ([3]; S9 Mix +, dose 2.3 µg/plate): 553 | Number of revertant colonies TA100 ([3]; S9 Mix +, dose 6.9 µg/plate): 1417 | Number of revertant colonies TA100 ([3]; S9 Mix +, dose 21 µg/plate): 2888 | Number of revertant colonies TA100 ([3]; S9 Mix +, dose 62 µg/plate): 3713 | Number of revertant colonies TA100 ([3]; S9 Mix +, dose 185 µg/plate): 2889 | Number of revertant colonies TA100 ([3]; S9 Mix +, dose 556 µg/plate): 1288 | Number of revertant colonies TA100 ([3]; S9 Mix +, dose 1667 µg/plate): 1576 | Number of revertant colonies TA100 ([3]; S9 Mix +, dose 5000 µg/plate): 1160 | Number of revertant colonies TA100 ([3]; S9 Mix -, dose 2.3 µg/plate): 107 | Number of revertant colonies TA100 ([3]; S9 Mix -, dose 6.9 µg/plate): 104 | Number of revertant colonies TA100 ([3]; S9 Mix -, dose 21 µg/plate): 115 | Number of revertant colonies TA100 ([3]; S9 Mix -, dose 62 µg/plate): 109 | Number of revertant colonies TA100 ([3]; S9 Mix -, dose 185 µg/plate): 93 | Number of revertant colonies TA100 ([3]; S9 Mix -, dose 556 µg/plate): 62 | Number of revertant colonies TA100 ([3]; S9 Mix -, dose 1667 µg/plate): 58 | Number of revertant colonies TA100 ([3]; S9 Mix -, dose 5000 µg/plate): 40 | potential to induce reverse mutations ([3]; TA100 with S9 mix): showed potential to induce reverse mutations | Number of revertant colonies TA1535 ([4]; S9 Mix +, dose 1667 µg/plate): 0 | Number of revertant colonies TA1535 ([4]; S9 Mix -, dose 556 µg/plate): 0 | Number of revertant colonies TA1535 ([4]; S9 Mix -, dose 1667 µg/plate): 0 | Number of revertant colonies WP2uvrA (Escherichia coli WP2uvrA; S9 Mix +, dose 2.3 µg/plate): 25 | Number of revertant colonies WP2uvrA (Escherichia coli WP2uvrA; S9 Mix +, dose 6.9 µg/plate): 20 | Number of revertant colonies WP2uvrA (Escherichia coli WP2uvrA; S9 Mix +, dose 21 µg/plate): 30 | Number of revertant colonies WP2uvrA (Escherichia coli WP2uvrA; S9 Mix +, dose 62 µg/plate): 24 | Number of revertant colonies WP2uvrA (Escherichia coli WP2uvrA; S9 Mix +, dose 185 µg/plate): 20 | Number of revertant colonies WP2uvrA (Escherichia coli WP2uvrA; S9 Mix +, dose 556 µg/plate): 24 | Number of revertant colonies WP2uvrA (Escherichia coli WP2uvrA; S9 Mix +, dose 1667 µg/plate): 16 | Number of revertant colonies WP2uvrA (Escherichia coli WP2uvrA; S9 Mix +, dose 5000 µg/plate): 6 | Number of revertant colonies WP2uvrA (Escherichia coli WP2uvrA; S9 Mix -, dose 2.3 µg/plate): 24 | Number of revertant colonies WP2uvrA (Escherichia coli WP2uvrA; S9 Mix -, dose 6.9 µg/plate): 23 | Number of revertant colonies WP2uvrA (Escherichia coli WP2uvrA; S9 Mix -, dose 21 µg/plate): 26 | Number of revertant colonies WP2uvrA (Escherichia coli WP2uvrA; S9 Mix -, dose 62 µg/plate): 19 | Number of revertant colonies WP2uvrA (Escherichia coli WP2uvrA; S9 Mix -, dose 185 µg/plate): 13 | Number of revertant colonies WP2uvrA (Escherichia coli WP2uvrA; S9 Mix -, dose 556 µg/plate): 74 | Number of revertant colonies WP2uvrA (Escherichia coli WP2uvrA; S9 Mix -, dose 1667 µg/plate): 8 | Number of revertant colonies WP2uvrA (Escherichia coli WP2uvrA; S9 Mix -, dose 5000 µg/plate): 5 | potential to induce reverse mutations (Escherichia coli WP2uvrA; WP2uvrA without S9 mix): showed potential to induce reverse mutations
